Experimental data reported in paper PMC12481576, “Barbituric Acid Derivatives as Covalent Inhibitors of Leishmania braziliensis Dihydroorotate Dehydrogenase” (Journal of Medicinal Chemistry, 2025).
Where two headings read alike, the source gives them in different places.

Columns and labels:
LbDHODH [1] = biological target: T1, LbDHODH (Leishmania braziliensis, UniProt E9AI53); assay: biochemical; conditions: for IC50: LbDHODH
Procedure, shortened: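 Screened at 100 μM with and without 4-h enzyme preincubation; DCIP reduction during DHO oxidation read at 610 nm every 3 s for 60 s in 50 mM Tris pH 8.15, 150 mM KCl, 0.1% Triton X-100, triplicate, 5% DMSO control. kinact/KI taken as slope of kobs versus inhibitor concentration (initial linear region).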

in vitro = conditions: microsomes; for microsomal CLint at 1 μM / remaining at 5 min, 1 μM: male, CD1, mouse; for remaining at 5 min, 1 μM / remaining at 10 min, 1 µM / remaining at 20 min, 1 µM / remaining at 0.5 h, 1 µM / remaining at 1 h, 1 µM: pH 7.4, % Remaining; for remaining at 5 min, 1 μM: T=5 min; for remaining at 10 min, 1 µM / remaining at 20 min, 1 µM / remaining at 0.5 h, 1 µM / remaining at 1 h, 1 µM: mouse; for remaining at 10 min, 1 µM: T=10 min; for remaining at 20 min, 1 µM: T=20 min; for remaining at 0.5 h, 1 µM: T=30 min, 30 min; for remaining at 1 h, 1 µM: T=60 min, 60 min
LbDHODH [2] = biological target: T1, LbDHODH; assay: Kinact/KI determination from LbDHODH progress curves (kobs vs inhibitor concentration); type: biochemical
Text: The Kinact/Ki ratio is a key parameter for evaluating the potency of covalent inhibitors, as it quantitatively measures both their reactivity and affinity for the target enzyme. This parameter integrates two crucial aspects: KI, which reflects the inhibitor’s binding affinity, and Kinact, which describes the rate at which the covalent bond is formed. […] Therefore, this ratio is essential for ranking covalent inhibitors, optimizing their potency, and guiding structure-based drug design.
The experiments were performed in a 96-well microplate reader (SpectraMax Plus 384, Molecular Devices, USA), containing the […] of the buffer 60 mM DCIP, 50 mM Tris pH 8.15, 150 mM KCl, 0.1% Triton X-100, 50 μM DHO and 10 μM of LbDHODH at 165 nM. The reaction was monitored every 3 s at 610 nm over a period of 60 s, in triplicate, for the control and each concentration of the inhibitor. All assays were performed without incubation (0h) and with 4-h preincubation of the inhibitor with LbDHODH, using 5% DMSO (v/v) as control. […] To determine the IC50 values, the activity percentage data were fitted as a function of the concentration logarithm by nonlinear regression analysis (variable hillslope) using Prism 9.0 software (GraphPad Software, USA). […] The resulting kobs values were plotted as a function of inhibitor concentration, and the data in the initial linear region was fit to determine the slope, which is kinact/KI. All regressions were performed with GraphPad Prism 9.

THP-1 cells = assay: Cell viability / cytotoxicity assay (PrestoBlue, 72 h); type: cell-based; conditions: THP-1 cell line, 72 h, max 200 μM
Procedure, shortened: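 PMA-differentiated THP-1 cells (150 ng/mL PMA, 48 h; then 24 h in fresh medium) were exposed to compounds in serial dilution from 200 μM for 72 h at 37 °C, 5% CO2. Viability was read by PrestoBlue fluorescence (ex 560/em 590 nm) after 2 h.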

[3] = 0 h, pH 8.15, read-out: LbDHODH Activity±SD (%)
[4] = 4 h, pH 8.15, read-out: LbDHODH Activity±SD (%)
[5] = IC50 0 h, without preincubation
[6] = read-out: Single dose (0h) % activity
[7] = read-out: Single dose (4h) % activity
[8] = n=1, mouse liver microsomes, 1 µM, n=1
[9] = n=2, mouse liver microsomes, 1 µM, n=2
[10] = pH 7.4, mouse liver microsomes CLint, app, mouse liver microsomes, NADPH, 1 μM

T1 sequence (E9AI53 entry or part of it): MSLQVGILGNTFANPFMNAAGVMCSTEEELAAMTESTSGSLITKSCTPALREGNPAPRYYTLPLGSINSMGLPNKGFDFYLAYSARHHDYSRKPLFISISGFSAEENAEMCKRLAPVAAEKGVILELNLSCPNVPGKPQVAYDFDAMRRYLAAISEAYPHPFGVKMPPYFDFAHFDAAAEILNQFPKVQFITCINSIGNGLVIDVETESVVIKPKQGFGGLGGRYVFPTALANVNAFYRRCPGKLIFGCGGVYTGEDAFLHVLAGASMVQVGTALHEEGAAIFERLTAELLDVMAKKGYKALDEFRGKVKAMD

Structure (SMILES): COc1cc(C=C2C(=O)NC(=O)NC2=O)ccc1O [2c, 5-(4-Hydroxy-3-methoxybenzylidene)pyrimidine-2,4,6(1H,3H,5H)-trione]
- activity at 0.390625 µM (LbDHODH [1]; [3]): 96 ± 9%
- activity at 0.78125 µM (LbDHODH [1]; [3]): 92 ± 9%
- activity at 1.5625 µM (LbDHODH [1]; [3]): 82 ± 23%
- activity at 3.125 µM (LbDHODH [1]; [3]): 77 ± 7%
- activity at 6.25 µM (LbDHODH [1]; [3]): 46 ± 4%
- activity at 12.5 µM (LbDHODH [1]; [3]): 36 ± 8%
- activity at 25 µM (LbDHODH [1]; [3]): 22 ± 2%
- activity at 50 µM (LbDHODH [1]; [3]): 13 ± 1%
- activity at 100 µM (LbDHODH [1]; [3]): 7 ± 4%
- activity at 200 µM (LbDHODH [1]; [3]): 5 ± 0.4%
- activity at 400 µM (LbDHODH [1]; [3]): 6 ± 1%
- activity at 0.390625 µM (LbDHODH [1]; [4]): 102 ± 10%
- activity at 0.78125 µM (LbDHODH [1]; [4]): 97 ± 9%
- activity at 1.5625 µM (LbDHODH [1]; [4]): 96 ± 12%
- activity at 3.125 µM (LbDHODH [1]; [4]): 90 ± 6%
- activity at 6.25 µM (LbDHODH [1]; [4]): 86 ± 7%
- activity at 12.5 µM (LbDHODH [1]; [4]): 83 ± 8%
- activity at 25 µM (LbDHODH [1]; [4]): 72 ± 5%
- activity at 50 µM (LbDHODH [1]; [4]): 62 ± 8%
- activity at 100 µM (LbDHODH [1]; [4]): 52 ± 6%
- activity at 200 µM (LbDHODH [1]; [4]): 32 ± 2%
- activity at 400 µM (LbDHODH [1]; [4]): 23 ± 3%
- IC50 (LbDHODH [1]; [5]): 7 ± 1 µM
- IC50 (LbDHODH [1]; IC50 4 h, 4-h preincubation): 89 ± 4 µM
- activity at 100 µM (LbDHODH [1]; [6]): 7 ± 3%
- activity at 100 µM (LbDHODH [1]; [7]): 21 ± 5%
- microsomal CLint at 1 μM (in vitro; pH 7.4): 283 µL/min/mg
- remaining at 5 min, 1 μM (in vitro; [8]): 38.7%
- remaining at 5 min, 1 μM (in vitro; [9]): 50.5%
- microsomal CLint at 1 μM (in vitro; pH 7.4, Calculated CLint, app (µl/min/mg), Average, mouse liver microsomes, 0.4 mg/ml protein, 1 µM): 290 µL/min/mg
- microsomal CLint at 1 μM (in vitro; pH 7.4, Calculated CLint, app (µl/min/mg), n=1, mouse liver microsomes, 0.4 mg/ml protein, 1 µM, replicate n=1): 283 µL/min/mg
- microsomal CLint at 1 μM (in vitro; pH 7.4, Calculated CLint, app (µl/min/mg), n=2, mouse liver microsomes, 0.4 mg/ml protein, 1 µM, replicate n=2): 298 µL/min/mg
- microsomal CLint at 1 μM (in vitro; [10]): 290 µL/min/mg
- remaining at 10 min, 1 µM (in vitro; [8]): 17.1%
- remaining at 10 min, 1 µM (in vitro; [9]): 17.8%
- remaining at 20 min, 1 µM (in vitro; [8]): 9.8%
- remaining at 20 min, 1 µM (in vitro; [9]): 9.5%
- remaining at 0.5 h, 1 µM (in vitro; [8]): 6.6%
- remaining at 0.5 h, 1 µM (in vitro; [9]): 9.5%
- remaining at 1 h, 1 µM (in vitro; [8]): 12.9%
- remaining at 1 h, 1 µM (in vitro; [9]): 13.3%

Structure (SMILES): O=C1NC(=O)C(=C/C=C/c2ccccc2)C(=O)N1 [2i, (E)-5-(3-Phenylallylidene)pyrimidine-2,4,6(1H,3H,5H)-trione]
- activity at 0.0976562 µM (LbDHODH [1]; [3]): 80 ± 11%
- activity at 0.195312 µM (LbDHODH [1]; [3]): 83 ± 14%
- activity at 0.390625 µM (LbDHODH [1]; [3]): 71 ± 17%
- activity at 0.78125 µM (LbDHODH [1]; [3]): 72 ± 12%
- activity at 1.5625 µM (LbDHODH [1]; [3]): 17 ± 4%
- activity at 3.125 µM (LbDHODH [1]; [3]): 11 ± 3%
- activity at 6.25 µM (LbDHODH [1]; [3]): 12 ± 3%
- activity at 12.5 µM (LbDHODH [1]; [3]): 4 ± 1%
- activity at 25 µM (LbDHODH [1]; [3]): 7 ± 3%
- activity at 50 µM (LbDHODH [1]; [3]): 4 ± 1%
- activity at 100 µM (LbDHODH [1]; [3]): 6 ± 1%
- activity at 200 µM (LbDHODH [1]; [3]): 1 ± 0.1%
- activity at 0.0976562 µM (LbDHODH [1]; [4]): 94 ± 19%
- activity at 0.195312 µM (LbDHODH [1]; [4]): 68 ± 11%
- activity at 0.390625 µM (LbDHODH [1]; [4]): 51 ± 9%
- activity at 0.78125 µM (LbDHODH [1]; [4]): 38 ± 9%
- activity at 3.125 µM (LbDHODH [1]; [4]): 10 ± 3%
- activity at 12.5 µM (LbDHODH [1]; [4]): 4 ± 1%
- activity at 50 µM (LbDHODH [1]; [4]): 16 ± 0.5%
- activity at 200 µM (LbDHODH [1]; [4]): 3 ± 0.4%
- IC50 (LbDHODH [1]; [5]): 0.9 ± 0.3 µM
- IC50 (LbDHODH [1]; IC50 4 h, 4-h preincubation): 0.5 ± 0.1 µM
- activity at 100 µM (LbDHODH [1]; [6]): 1.1 ± 0.2%
- activity at 100 µM (LbDHODH [1]; [7]): 3 ± 2%
- inhibition at 100 µM (LbDHODH [1]; read-out: enzyme inhibition): 97%
- microsomal CLint at 1 μM (in vitro; pH 7.4): > 578 µL/min/mg
- remaining at 5 min, 1 μM (in vitro; [8]): 28.2%
- remaining at 5 min, 1 μM (in vitro; [9]): 28.1%
- microsomal CLint at 1 μM (in vitro; [10]): > 578 µL/min/mg
- remaining at 10 min, 1 µM (in vitro; [8]): 0%
- remaining at 10 min, 1 µM (in vitro; [9]): 0%
- remaining at 20 min, 1 µM (in vitro; [8]): 0%
- remaining at 20 min, 1 µM (in vitro; [9]): 0%
- remaining at 0.5 h, 1 µM (in vitro; [8]): 0%
- remaining at 0.5 h, 1 µM (in vitro; [9]): 0%
- remaining at 1 h, 1 µM (in vitro; [8]): 0%
- remaining at 1 h, 1 µM (in vitro; [9]): 0%
- Kobs (LbDHODH [2]; inhibitor 0.0975 µM): 0.002849 ± 0.002 s⁻¹
- Kobs (LbDHODH [2]; inhibitor 0.195 µM): 0.002994 ± 0.002 s⁻¹
- Kobs (LbDHODH [2]; inhibitor 0.390625 µM): 0.003028 ± 0.002 s⁻¹
- Kobs (LbDHODH [2]; inhibitor 0.78125 µM): 0.003309 ± 0.002 s⁻¹
- Kobs (LbDHODH [2]; inhibitor 1.5625 µM): 0.003849 ± 0.002 s⁻¹
- Kobs (LbDHODH [2]; inhibitor 3.125 µM): 0.005668 ± 0.003 s⁻¹
- Kobs (LbDHODH [2]; inhibitor 6.25 µM): 0.007929 ± 0.002 s⁻¹
- Kobs (LbDHODH [2]; inhibitor 12.5 µM): 0.02055 ± 0.002 s⁻¹
- Kobs (LbDHODH [2]; inhibitor 25 µM): 0.0045 ± 0.002 s⁻¹
- kinact/KI (LbDHODH [2]; slope of kobs vs inhibitor concentration): 767 M⁻¹ s⁻¹
- CC50 (THP-1 cells): no cytotoxicity
